The text below walks through data of patent US10308643B2, “Heterocyclic compound” (Takeda Pharmaceutical Company Limited, priority 2015, dated 2019).

Common to all, as to type: biochemical
In one assay the target is T1, HDAC6 enzyme (Homo sapiens, UniProt Q9UBN7).
T1 construct: transducing full length HDAC1 and HDAC6 genes into Sf-9 insect cells; GST; purchased SignalChem; host or cells: Sf-9 insect cells
T1 sequence (Q9UBN7 1-1215): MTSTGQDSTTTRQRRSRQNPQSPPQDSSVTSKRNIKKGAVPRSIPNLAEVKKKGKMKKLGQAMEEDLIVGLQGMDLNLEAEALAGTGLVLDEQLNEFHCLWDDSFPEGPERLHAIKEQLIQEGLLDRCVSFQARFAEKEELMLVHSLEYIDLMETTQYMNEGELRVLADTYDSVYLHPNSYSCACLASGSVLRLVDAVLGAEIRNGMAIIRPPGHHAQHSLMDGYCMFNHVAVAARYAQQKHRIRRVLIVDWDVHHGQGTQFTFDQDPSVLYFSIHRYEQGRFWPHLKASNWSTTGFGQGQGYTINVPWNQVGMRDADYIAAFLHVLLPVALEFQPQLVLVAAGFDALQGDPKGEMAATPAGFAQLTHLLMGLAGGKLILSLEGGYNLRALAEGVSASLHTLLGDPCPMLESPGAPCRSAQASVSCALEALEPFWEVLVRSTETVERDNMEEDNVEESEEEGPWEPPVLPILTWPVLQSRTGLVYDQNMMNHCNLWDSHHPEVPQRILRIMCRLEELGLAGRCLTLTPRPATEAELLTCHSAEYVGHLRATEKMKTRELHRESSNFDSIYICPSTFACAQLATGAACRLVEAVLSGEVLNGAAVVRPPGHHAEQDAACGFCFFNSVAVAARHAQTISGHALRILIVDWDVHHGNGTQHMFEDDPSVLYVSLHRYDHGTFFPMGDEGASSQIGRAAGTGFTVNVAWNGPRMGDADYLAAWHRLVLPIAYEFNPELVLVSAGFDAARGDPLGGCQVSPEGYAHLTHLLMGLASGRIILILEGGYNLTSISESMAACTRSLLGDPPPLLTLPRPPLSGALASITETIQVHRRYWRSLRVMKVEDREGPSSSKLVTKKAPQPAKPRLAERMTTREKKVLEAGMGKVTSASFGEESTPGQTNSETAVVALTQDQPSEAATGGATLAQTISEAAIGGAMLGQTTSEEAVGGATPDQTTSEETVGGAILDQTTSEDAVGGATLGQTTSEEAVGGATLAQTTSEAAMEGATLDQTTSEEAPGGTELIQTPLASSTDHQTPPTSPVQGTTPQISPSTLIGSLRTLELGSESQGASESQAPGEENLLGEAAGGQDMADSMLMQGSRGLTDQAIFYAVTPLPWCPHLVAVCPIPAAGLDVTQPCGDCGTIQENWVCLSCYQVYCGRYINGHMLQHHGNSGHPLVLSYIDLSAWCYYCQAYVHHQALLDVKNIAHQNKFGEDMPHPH
The assay can be described thus: HDAC1/6 Enzyme Inhibitory Assay (HDAC-Glo I/II Assay kit), HDAC6. The following applies: 1 μM test compound; wells without enzyme = 100% inhibition; read-out: HDAC6 inhibitory rate (%) (1 μM). In short, it runs like this:
(§1)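 Luminescent HDAC-Glo I/II read-out was taken 20 min after adding substrate-developer, at room temperature. Before this, compound and enzyme were held together for 60 min in 24 mM Tris-HCl pH 7.5 with 0.6 mM glutathione and 0.01% Tween-20. The enzyme was full-length HDAC1 or HDAC6 from Sf-9 cells, GST-purified. Wells without enzyme defined 100% inhibition.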

Another assay deals with T2, HDAC1 enzyme (Homo sapiens, UniProt Q13547).
T2 construct: transducing full length HDAC1 and HDAC6 genes into Sf-9 insect cells; GST; purchased SignalChem; host or cells: Sf-9 insect cells
The assay can be described thus: HDAC1/6 Enzyme Inhibitory Assay (HDAC-Glo I/II Assay kit), HDAC1. The following applies: 1 μM test compound; wells without enzyme = 100% inhibition; read-out: HDAC1 inhibitory rate (%) (1 μM). The procedure, abridged: as §1

The target of the next assay is T3, HDAC9 enzyme (Homo sapiens, UniProt Q9UKV0).
T3 construct: transducing full length HDAC9 gene into Sf-9 insect cells; made in house; host or cells: Sf-9 insect cells
The assay can be described thus: HDAC9 Enzyme Inhibitory Assay (HDAC-Glo class IIa). The settings on record: 1 μM test compound; wells without enzyme = 100% inhibition; read-out: HDAC9 inhibitory rate (%) (1 μM). The procedure, abridged: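 Luminescent HDAC-Glo class IIa readout after a 20 min room-temperature reaction; relative inhibition referenced to enzyme-free wells as 100%. Test compound first preincubated 60 min with Sf-9-expressed, Ni-NTA-purified full-length HDAC9 in pH 7.5 Tris buffer containing 135 mM NaCl, 0.6 mM glutathione and 0.01% Tween-20.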

Structures are written as SMILES.

T2 sequence (Q13547 whole entry): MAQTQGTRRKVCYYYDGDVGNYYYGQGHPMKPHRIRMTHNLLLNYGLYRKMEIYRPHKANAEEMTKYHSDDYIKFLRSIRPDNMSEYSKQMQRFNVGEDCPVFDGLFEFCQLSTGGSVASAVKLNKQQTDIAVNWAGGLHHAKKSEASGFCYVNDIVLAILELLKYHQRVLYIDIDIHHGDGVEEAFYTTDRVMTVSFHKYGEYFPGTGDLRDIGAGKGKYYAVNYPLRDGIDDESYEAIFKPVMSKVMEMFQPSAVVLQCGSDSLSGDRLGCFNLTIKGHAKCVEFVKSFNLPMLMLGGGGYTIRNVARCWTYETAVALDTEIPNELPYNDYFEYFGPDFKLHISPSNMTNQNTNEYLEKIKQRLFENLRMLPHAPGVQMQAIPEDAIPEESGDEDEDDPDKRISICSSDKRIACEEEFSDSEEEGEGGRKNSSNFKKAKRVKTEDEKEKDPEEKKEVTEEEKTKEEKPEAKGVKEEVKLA
T3 sequence (Q9UKV0 whole entry, species assumed): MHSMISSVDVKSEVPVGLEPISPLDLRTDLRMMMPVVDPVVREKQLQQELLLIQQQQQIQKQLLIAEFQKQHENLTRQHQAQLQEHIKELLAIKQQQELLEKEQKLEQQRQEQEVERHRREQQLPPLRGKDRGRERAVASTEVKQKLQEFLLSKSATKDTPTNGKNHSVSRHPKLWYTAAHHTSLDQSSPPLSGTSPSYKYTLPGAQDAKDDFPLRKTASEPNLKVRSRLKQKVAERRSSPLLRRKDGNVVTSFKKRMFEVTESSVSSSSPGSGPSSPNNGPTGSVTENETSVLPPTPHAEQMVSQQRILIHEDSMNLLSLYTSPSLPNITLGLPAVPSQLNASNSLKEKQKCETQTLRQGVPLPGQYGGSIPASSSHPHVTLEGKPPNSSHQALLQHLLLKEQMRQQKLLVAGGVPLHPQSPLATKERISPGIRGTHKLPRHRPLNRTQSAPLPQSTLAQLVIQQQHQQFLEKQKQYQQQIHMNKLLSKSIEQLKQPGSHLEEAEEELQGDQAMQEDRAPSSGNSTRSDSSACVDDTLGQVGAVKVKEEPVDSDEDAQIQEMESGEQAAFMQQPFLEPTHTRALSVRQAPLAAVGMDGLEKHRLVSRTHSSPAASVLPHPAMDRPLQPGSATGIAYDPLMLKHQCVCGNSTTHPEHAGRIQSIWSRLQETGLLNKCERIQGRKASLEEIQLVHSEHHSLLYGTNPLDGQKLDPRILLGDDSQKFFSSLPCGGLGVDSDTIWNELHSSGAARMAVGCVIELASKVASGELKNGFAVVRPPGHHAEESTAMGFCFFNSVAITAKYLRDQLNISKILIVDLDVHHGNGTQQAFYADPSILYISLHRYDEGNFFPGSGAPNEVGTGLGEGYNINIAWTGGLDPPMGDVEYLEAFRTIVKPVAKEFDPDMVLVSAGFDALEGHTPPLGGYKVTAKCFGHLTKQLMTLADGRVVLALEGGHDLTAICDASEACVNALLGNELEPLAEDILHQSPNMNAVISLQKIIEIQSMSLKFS

As to `O=C1CCCN1[C@@H]1CCCC[C@H]1N1Cc2ncc(-c3noc(C(F)(F)F)n3)cc2C1=O` [Example 186, 6-((1R,2R)-2-(2-oxopyrrolidin-1-yl)cyclohexyl)-3-(5-(trifluoromethyl)-1,2,4-oxadiazol-3-yl)-6,7-dihydro-5H-pyrrolo[3,4-b]pyridin-5-one], the inhibition at 1 µM at HDAC6 enzyme amounted to 97%; at HDAC1 enzyme, 26%; on HDAC9 enzyme it was 95%.
On to `O=C(N[C@@H]1CCCC[C@H]1N1Cc2ccc(-c3noc(C(F)(F)F)n3)cc2C1=O)N1CC(F)C1` [Example 187, 3-fluoro-N-((1R,2R)-2-(1-oxo-6-(5-(trifluoromethyl)-1,2,4-oxadiazol-3-yl)-1,3-dihydro-2H-isoindol-2-yl)cyclohexyl)azetidine-1-carboxamide], for which the inhibition at 1 µM on HDAC6 enzyme stood at 99%; on HDAC1 enzyme it was 9%; at HDAC9 enzyme it was 29%.
For `CN(C)C(=O)c1ccccc1N1Cc2ccc(-c3noc(C(F)(F)F)n3)cc2C1=O` [Example 188, N,N-dimethyl-2-(1-oxo-6-(5-(trifluoromethyl)-1,2,4-oxadiazol-3-yl)-1,3-dihydro-2H-isoindol-2-yl)benzamide], the figures for the inhibition at 1 µM at HDAC6 enzyme, on HDAC1 enzyme and at HDAC9 enzyme were 95%, 10% and 45%, respectively.
For `O=C(N[C@@H]1CCOC[C@H]1N1Cc2ccc(-c3noc(C(F)(F)F)n3)cc2C1=O)[C@H]1CC1(F)F` [Example 190, (1R)-2,2-difluoro-N-((3S,4R)-3-(1-oxo-6-(5-(trifluoromethyl)-1,2,4-oxadiazol-3-yl)-1,3-dihydro-2H-isoindol-2-yl)tetrahydro-2H-pyran-4-yl)cyclopropanecarboxamide], in that order: 100%, 19% and 84%.
For `CC1(C(=O)N[C@@H]2CCOC[C@H]2N2Cc3ccc(-c4noc(C(F)(F)F)n4)cc3C2=O)COC1` [Example 192, 3-methyl-N-((3S,4R)-3-(1-oxo-6-(5-(trifluoromethyl)-1,2,4-oxadiazol-3-yl)-1,3-dihydro-2H-isoindol-2-yl)tetrahydro-2H-pyran-4-yl)oxetane-3-carboxamide], the inhibition at 1 µM at HDAC6 enzyme was 99%; at HDAC1 enzyme, 6%; at HDAC9 enzyme it was 40%.
As to `CC1(C(=O)N[C@H]2CCCC[C@@H]2N2Cc3ccc(-c4noc(C(F)(F)F)n4)cc3C2=O)COC1` [Example 193, 3-methyl-N-((1S,2S)-2-(1-oxo-6-(5-(trifluoromethyl)-1,2,4-oxadiazol-3-yl)-1,3-dihydro-2H-isoindol-2-yl)cyclohexyl)oxetane-3-carboxamide], the inhibition at 1 µM on HDAC6 enzyme was found to be 43%; on HDAC1 enzyme, 4%; on HDAC9 enzyme, 32%.
For the compound `CC1(C(=O)N[C@@H]2CCCC[C@H]2N2Cc3ccc(-c4noc(C(F)(F)F)n4)cc3C2=O)CNC1` [Example 194, 3-methyl-N-((1R,2R)-2-(1-oxo-6-(5-(trifluoromethyl)-1,2,4-oxadiazol-3-yl)-1,3-dihydro-2H-isoindol-2-yl)cyclohexyl)azetidine-3-carboxamide], the inhibition at 1 µM on HDAC6 enzyme stood at 100%; at HDAC1 enzyme, 3%; on HDAC9 enzyme, 26%.
The matching figures for `CC(=O)N1CC(C)(C(=O)N[C@@H]2CCCC[C@H]2N2Cc3ccc(-c4noc(C(F)(F)F)n4)cc3C2=O)C1` [Example 195, 1-acetyl-3-methyl-N-((1R,2R)-2-(1-oxo-6-(5-(trif1uoromethyl)-1,2,4-oxadiazol-3-yl)-1,3-dihydro-2H-isoindol-2-yl)cyclohexyl)azetidine-3-carboxamide]: 98%, 1% and 57%.
On to `CN1CC(C)(C(=O)N[C@@H]2CCCC[C@H]2N2Cc3ccc(-c4noc(C(F)(F)F)n4)cc3C2=O)C1` [Example 196, 1,3-dimethyl-N-((1R,2R)-2-(1-oxo-6-(5-(trifluoromethyl)-1,2,4-oxadiazol-3-yl)-1,3-dihydro-2H-isoindol-2-yl)cyclohexyl)azetidine-3-carboxamide], for which the inhibition at 1 µM came out at 101% at HDAC6 enzyme, 4% on HDAC1 enzyme and 22% at HDAC9 enzyme.
For `CC(C)(C)OC(=O)N1CC(C)(C(=O)N[C@@H]2CCCC[C@H]2N2Cc3ccc(-c4noc(C(F)(F)F)n4)cc3C2=O)C1` [Example 197, tert-butyl 3-methyl-3-(((1R,2R)-2-(1-oxo-6-(5-(trifluoromethyl)-1,2,4-oxadiazol-3-yl)-1,3-dihydro-2H-isoindol-2-yl)cyclohexyl)carbamoyl)azetidine-1-carboxylate], in that order: 100%, 6% and 48%.
Regarding `O=C(N[C@H]1CCOC[C@@H]1N1Cc2ccc(-c3noc(C(F)(F)F)n3)cc2C1=O)[C@@H]1CC1(F)F` [Example 201, (1S)-2,2-difluoro-N-((3R,4S)-3-(1-oxo-6-(5-(trifluoromethyl)-1,2,4-oxadiazol-3-yl)-1,3-dihydro-2H-isoindol-2-yl)tetrahydro-2H-pyran-4-yl)cyclopropanecarboxamide], the inhibition at 1 µM on HDAC6 enzyme came to 98%; at HDAC1 enzyme, 16%; on HDAC9 enzyme, 86%.
As to `O=C(N[C@H]1CCOC[C@@H]1N1Cc2ccc(-c3noc(C(F)(F)F)n3)cc2C1=O)[C@H]1CC1(F)F` [Example 202, (1R)-2,2-difluoro-N-((3R,4S)-3-(1-oxo-6-(5-(trifluoromethyl)-1,2,4-oxadiazol-3-yl)-1,3-dihydro-2H-isoindol-2-yl)tetrahydro-2H-pyran-4-yl)cyclopropanecarboxamide], the inhibition at 1 µM on HDAC6 enzyme was found to be 99%; at HDAC1 enzyme it was 13%; on HDAC9 enzyme, 59%.
As to `O=C(N[C@@H]1CCOC[C@H]1N1Cc2ccc(-c3noc(C(F)(F)F)n3)cc2C1=O)C1CCOC1` (stereo partly drawn) [Example 205, N-((3S,4R)-3-(1-oxo-6-(5-(trifluoromethyl)-1,2,4-oxadiazol-3-yl)-1,3-dihydro-2H-isoindol-2-yl)tetrahydro-2H-pyran-4-yl)tetrahydrofuran-3-carboxamide], the inhibition at 1 µM on HDAC6 enzyme was determined as 99%; at HDAC1 enzyme, 5%; at HDAC9 enzyme, 52%.
For `O=C(N[C@@H]1CCOC[C@H]1N1Cc2ccc(-c3noc(C(F)(F)F)n3)cc2C1=O)[C@@H]1CCOC1` [Example 206, (3R)-N-((3S,4R)-3-(1-oxo-6-(5-(trifluoromethyl)-1,2,4-oxadiazol-3-yl)-1,3-dihydro-2H-isoindol-2-yl)tetrahydro-2H-pyran-4-yl)tetrahydrofuran-3-carboxamide], in that order: 97%, 5% and 52%.
The matching figures for `O=C(N[C@@H]1CCOC[C@H]1N1Cc2ccc(-c3noc(C(F)(F)F)n3)cc2C1=O)[C@H]1CCOC1` [Example 208, (3S)-N-((3S,4R)-3-(1-oxo-6-(5-(trifluoromethyl)-1,2,4-oxadiazol-3-yl)-1,3-dihydro-2H-isoindol-2-yl)tetrahydro-2H-pyran-4-yl)tetrahydrofuran-3-carboxamide]: 98%, 4% and 53%.
